Assay results taken from PubChem BioAssay AID330 (DTP/NCI, 2004).
“And” between values parts separate entries of the source, which are not always exact repeats. Equal values may be shown once. Inconclusive results and toxic doses are left out. How the source made its calls: active means survival T/C of 150% or more; inactive means T/C below 125% in these data.

Tested on: P388 leukemia ip, CD2F1 mice, survival T/C
Test: NCI In Vivo Anticancer Drug Screen. Data for tumor model P388 Leukemia (intraperitoneal) in CD2F1 (CDF1) mice
Conditions: endpoint: median survival time, higher = longer survival
Procedure, shortened: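 Mice carrying the transplanted tumor received test compound or vehicle. Survival was recorded in each group, and the value is the treated-group measurement divided by that of the vehicle-treated control group.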

[1] = dose: 100.0 mg/kg/injection, schedule: Q01DX001 (ip), vehicle: saline with Tween-80
[2] = dose: 100.0 mg/kg/injection, schedule: Q04DX003 (ip), vehicle: saline with Tween-80
[3] = dose: 200.0 mg/kg/injection, schedule: Q04DX003 (ip), vehicle: saline with Tween-80
[4] = dose: 50.0 mg/kg/injection, schedule: Q01DX009 (ip), vehicle: saline with Tween-80
[5] = dose: 50.0 mg/kg/injection, schedule: Q01DX005 (ip), vehicle: saline with Tween-80
[6] = dose: 100.0 mg/kg/injection, schedule: Q01DX005 (ip), vehicle: saline with Tween-80
[7] = dose: 200.0 mg/kg/injection, schedule: Q01DX005 (ip), vehicle: saline with Tween-80
[8] = dose: 60.0 mg/kg/injection, schedule: Q01DX005 (ip), vehicle: Klucel (hydroxypropylcellulose) (HPC)
[9] = dose: 120.0 mg/kg/injection, schedule: Q01DX005 (ip), vehicle: Klucel (hydroxypropylcellulose) (HPC)
[10] = dose: 240.0 mg/kg/injection, schedule: Q01DX005 (ip), vehicle: Klucel (hydroxypropylcellulose) (HPC)

Measured: T/C

CCCOC(=O)Nc1ccc2c(c1)c1c3[nH]c(=O)c4cccn4c3ccc1n2CC
inactive: [1] 94 % of control | dose: 200.0 mg/kg/injection, schedule: Q01DX001 (ip), vehicle: saline with Tween-80 94 % of control

C=C1c2c(O)c(C)c(O)c(C(C)=O)c2OC12CC(=O)C(C(=O)O)=C2C (stereo not given)
inactive: dose: 12.5 mg/kg/injection, schedule: Q01DX009 (ip), vehicle: gum acacia 105 % of control and 112 % of control | dose: 25.0 mg/kg/injection, schedule: Q01DX009 (ip), vehicle: gum acacia 108 % of control and 109 % of control | dose: 50.0 mg/kg/injection, schedule: Q01DX009 (ip), vehicle: gum acacia 108 % of control | dose: 100.0 mg/kg/injection, schedule: Q01DX009 (ip), vehicle: gum acacia 108 % of control and 110 % of control | dose: 200.0 mg/kg/injection, schedule: Q01DX009 (ip), vehicle: gum acacia 108 % of control and 110 % of control

O=NNc1ncc(Br)cc1Br
inactive: dose: 1.56 mg/kg/injection, schedule: Q01DX009 (ip), vehicle: water 100 % of control | dose: 3.12 mg/kg/injection, schedule: Q01DX009 (ip), vehicle: water 99 % of control and 107 % of control | dose: 6.25 mg/kg/injection, schedule: Q01DX009 (ip), vehicle: water 107 % of control and 110 % of control | dose: 12.5 mg/kg/injection, schedule: Q01DX005 (ip), vehicle: water 119 % of control and 122 % of control | dose: 12.5 mg/kg/injection, schedule: Q01DX009 (ip), vehicle: water 122 % of control | dose: 25.0 mg/kg/injection, schedule: Q01DX009 (ip), vehicle: water 122 % of control
active: dose: 50.0 mg/kg/injection, schedule: Q01DX005 (ip), vehicle: water 154 % of control and 165 % of control | dose: 100.0 mg/kg/injection, schedule: Q01DX005 (ip), vehicle: water 175 % of control and 190 % of control and 206 % of control

CCC(=O)c1nc(N)[nH]c1CC
inactive: dose: 2.5 mg/kg/injection, schedule: Q01DX005 (ip), vehicle: Klucel (hydroxypropylcellulose) (HPC) 101 % of control | dose: 5.0 mg/kg/injection, schedule: Q01DX005 (ip), vehicle: Klucel (hydroxypropylcellulose) (HPC) 93 % of control | dose: 10.0 mg/kg/injection, schedule: Q01DX005 (ip), vehicle: Klucel (hydroxypropylcellulose) (HPC) 102 % of control

CCCN(CCC)CCSC(=S)NCCOC
inactive: [2] 100 % of control | [3] 100 % of control

CCCCCCCCOP(=O)(N1CC1C)N1CC1C (stereo not given)
active: [4] 158 % of control and 168 % of control
inactive: dose: 12.5 mg/kg/injection, schedule: Q01DX009 (ip), vehicle: saline with Tween-80 113 % of control | dose: 25.0 mg/kg/injection, schedule: Q04DX003 (ip), vehicle: saline 109 % of control | dose: 50.0 mg/kg/injection, schedule: Q04DX003 (ip), vehicle: saline 113 % of control

CC1(C)CC2(C)OC2C2(C1)N=NC(=Nc1ccccc1)O2 (stereo not given)
inactive: [4] 105 % of control and 92 % of control | dose: 100.0 mg/kg/injection, schedule: Q01DX009 (ip), vehicle: saline with Tween-80 120 % of control and 97 % of control | dose: 200.0 mg/kg/injection, schedule: Q01DX009 (ip), vehicle: saline with Tween-80 108 % of control

O=C1CN(CCCCl)CC(=O)N2Cc3ccccc3CN12
inactive: [5] 106 % of control | [6] 101 % of control | [7] 99 % of control

CCN(CC)CCCNc1c2c(nc3c(Cl)cccc13)CCCC2
inactive: [5] 100 % of control | [6] 100 % of control

C=CCC(C(=O)OC)c1ccccc1 (stereo not given)
inactive: dose: 0.4 mg/kg/injection, schedule: Q01DX009 (ip), vehicle: saline with Tween-80 99 % of control | dose: 0.8 mg/kg/injection, schedule: Q01DX009 (ip), vehicle: saline with Tween-80 98 % of control | dose: 1.6 mg/kg/injection, schedule: Q01DX009 (ip), vehicle: saline with Tween-80 104 % of control

S=C1SCCCN1c1ccccc1
inactive: dose: 100.0 mg/kg/injection, schedule: Q04DX003 (ip), vehicle: Klucel (hydroxypropylcellulose) (HPC) 100 % of control | dose: 200.0 mg/kg/injection, schedule: Q04DX003 (ip), vehicle: Klucel (hydroxypropylcellulose) (HPC) 110 % of control

Clc1ccc(CNc2ncnc3[nH]ncc23)c(Cl)c1
inactive: [2] 100 % of control | [3] 100 % of control

O=C(Oc1ccc[nH]c1=O)C1CC1
inactive: dose: 12.5 mg/kg/injection, schedule: Q01DX009 (ip), vehicle: saline 99 % of control and 100 % of control | dose: 25.0 mg/kg/injection, schedule: Q01DX009 (ip), vehicle: saline 101 % of control and 102 % of control | dose: 50.0 mg/kg/injection, schedule: Q01DX009 (ip), vehicle: saline 98 % of control and 108 % of control | dose: 100.0 mg/kg/injection, schedule: Q01DX009 (ip), vehicle: saline 103 % of control and 106 % of control | dose: 200.0 mg/kg/injection, schedule: Q01DX009 (ip), vehicle: saline 107 % of control and 117 % of control | dose: 400.0 mg/kg/injection, schedule: Q01DX009 (ip), vehicle: saline 100 % of control

CCN(CC)CCCCCCCCOC(=O)c1cc(OC)c(OC)c(OC)c1
inactive: dose: 12.5 mg/kg/injection, schedule: Q01DX005 (ip), vehicle: saline 101 % of control | dose: 25.0 mg/kg/injection, schedule: Q01DX005 (ip), vehicle: saline 97 % of control | dose: 50.0 mg/kg/injection, schedule: Q01DX005 (ip), vehicle: saline 96 % of control | dose: 60.0 mg/kg/injection, schedule: Q01DX005 (ip), vehicle: saline 99 % of control

OCCCC(=S)NCCNC(=S)CCCO
inactive: [8] 101 % of control | [9] 92 % of control | [10] 101 % of control

c1ccc(Nc2ccc(CN3CCCCC3)cc2)cc1
inactive: [8] 93 % of control | [9] 99 % of control | [10] 87 % of control

CC(=O)Nc1ccsc1S(=O)(=O)c1sccc1NC(C)=O
inactive: dose: 100.0 mg/kg/injection, schedule: Q04DX002 (ip), vehicle: saline with Tween-80 100 % of control | dose: 200.0 mg/kg/injection, schedule: Q04DX002 (ip), vehicle: saline with Tween-80 99 % of control | dose: 400.0 mg/kg/injection, schedule: Q04DX002 (ip), vehicle: saline with Tween-80 98 % of control

COc1ccc2ccccc2c1CC(C)O (stereo not given)
inactive: [5] 101 % of control | [6] 98 % of control | [7] 102 % of control

CNC(=O)NCCCCCCNC(=O)NC
inactive: dose: 50.0 mg/kg/injection, schedule: Q01DX005 (ip), vehicle: Klucel (hydroxypropylcellulose) (HPC) 99 % of control and 95 % of control | dose: 100.0 mg/kg/injection, schedule: Q01DX005 (ip), vehicle: Klucel (hydroxypropylcellulose) (HPC) 87 % of control and 95 % of control | dose: 200.0 mg/kg/injection, schedule: Q01DX005 (ip), vehicle: Klucel (hydroxypropylcellulose) (HPC) 89 % of control

S=c1nc(N2CCOCC2)n(/C=C/c2ccccc2)c(=S)n1C(=N/C=C/c1ccccc1)N1CCOCC1
inactive: dose: 25.0 mg/kg/injection, schedule: Q04DX003 (ip), vehicle: saline with Tween-80 113 % of control | dose: 50.0 mg/kg/injection, schedule: Q04DX003 (ip), vehicle: saline with Tween-80 89 % of control | [2] 91 % of control and 97 % of control | dose: 400.0 mg/kg/injection, schedule: Q04DX003 (ip), vehicle: saline with Tween-80 87 % of control

CC(C)NC(=O)c1ccccc1Sc1ccccc1CN(C)C(C)C
inactive: dose: 25.0 mg/kg/injection, schedule: Q01DX001 (ip), vehicle: saline with Tween-80 99 % of control | dose: 50.0 mg/kg/injection, schedule: Q01DX001 (ip), vehicle: saline with Tween-80 95 % of control | [1] 98 % of control and 102 % of control

CC1COC2(CC1OC(=O)/C=C/c1ccccc1)OC1CC(C(=O)OC3OC(C)C(O)C(O)C3OC3OC(C)C(O)C(O)C3O)CCC1C21CO1 (stereo not given)
active: dose: 60.0 mg/kg/injection, schedule: Q01DX005 (ip), vehicle: saline + alcohol 153 % of control
inactive: dose: 1.88 mg/kg/injection, schedule: Q01DX005 (ip), vehicle: saline + alcohol 106 % of control | dose: 3.75 mg/kg/injection, schedule: Q01DX005 (ip), vehicle: saline + alcohol 106 % of control | dose: 7.5 mg/kg/injection, schedule: Q01DX005 (ip), vehicle: saline + alcohol 111 % of control and 118 % of control | dose: 15.0 mg/kg/injection, schedule: Q01DX005 (ip), vehicle: saline + alcohol 118 % of control

O=C1C(Br)=CC2C1C1C=CC2(Br)C1=O (stereo not given)
inactive: dose: 30.0 mg/kg/injection, schedule: Q01DX005 (ip), vehicle: saline with Tween-80 105 % of control and 107 % of control | dose: 60.0 mg/kg/injection, schedule: Q01DX005 (ip), vehicle: saline with Tween-80 111 % of control and 112 % of control and 118 % of control | dose: 120.0 mg/kg/injection, schedule: Q01DX005 (ip), vehicle: saline with Tween-80 101 % of control and 111 % of control and 113 % of control | dose: 240.0 mg/kg/injection, schedule: Q01DX005 (ip), vehicle: saline with Tween-80 120 % of control
